This passage reports T/C results from PubChem BioAssay AID192 (DTP/NCI, 2004).

Molecules are shown by their SMILES. Values joined by “and” are separate entries in the source; they are usually repeats but may differ in a detail not shown here. Equal values may be shown once. Inconclusive results and toxic doses are left out.

In the experiment the test system is BDF1 mice, B16 melanoma ip, median survival T/C. The experiment is described as follows: NCI In Vivo Anticancer Drug Screen. Data for tumor model B16 Melanoma (intraperitoneal) in B6D2F1 (BDF1) mice. To be noted: endpoint: median survival time, higher = longer survival. Summed up: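 Vehicle-treated animals serve as the reference (C); treated animals (T) are scored for survival or tumor size after tumor transplantation.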

[1] abbreviates: dose: 25.0 mg/kg/injection, schedule: Q01DX009 (ip), vehicle: Klucel (hydroxypropylcellulose) (HPC).
[2] abbreviates: dose: 50.0 mg/kg/injection, schedule: Q01DX009 (ip), vehicle: Klucel (hydroxypropylcellulose) (HPC).
Where [3] appears, read: dose: 6.25 mg/kg/injection, schedule: Q01DX009 (ip), vehicle: saline.
The mark [4] stands for this setting: dose: 1.25 mg/kg/injection, schedule: Q01DX009 (ip), vehicle: saline.
The mark [5] stands for this setting: dose: 2.5 mg/kg/injection, schedule: Q01DX009 (ip), vehicle: saline.
Where [6] appears, read: dose: 100.0 mg/kg/injection, schedule: Q01DX009 (ip), vehicle: Klucel (hydroxypropylcellulose) (HPC).

Turning to `CC1CCC(NC(=O)N(CCCl)N=O)CC1` (stereo not given), the T/C is 104 % of control (dose: 0.5 mg/kg/injection, schedule: Q01DX009 (ip), vehicle: other); 95 % of control (dose: 0.5 mg/kg/injection, schedule: Q01DX009 (ip), vehicle: saline + alcohol); 112 % of control (dose: 1.0 mg/kg/injection, schedule: Q01DX009 (ip), vehicle: other); 113 % of control (dose: 1.0 mg/kg/injection, schedule: Q01DX009 (ip), vehicle: saline + alcohol); 106 % of control (dose: 1.9 mg/kg/injection, schedule: Q01DX001 (ip), vehicle: saline); 103 % of control (dose: 2.0 mg/kg/injection, schedule: Q01DX009 (ip), vehicle: distilled water + Tween-80 + alcohol). The T/C runs as follows: (dose: 2.0 mg/kg/injection, schedule: Q01DX009 (ip), vehicle: other) 111 % of control; (dose: 2.0 mg/kg/injection, schedule: Q01DX009 (ip), vehicle: saline + alcohol) 118 % of control; (dose: 2.5 mg/kg/injection, schedule: Q04DX003 (ip), vehicle: other) 109 % of control; (dose: 3.75 mg/kg/injection, schedule: Q01DX001 (ip), vehicle: saline) 117 % of control; (dose: 3.75 mg/kg/injection, schedule: Q04DX003 (ip), vehicle: other) 112 % of control and 123 % of control; (dose: 4.0 mg/kg/injection, schedule: Q01DX009 (ip), vehicle: distilled water + Tween-80 + alcohol) 108 % of control. Further, the T/C is 150 % of control (dose: 4.0 mg/kg/injection, schedule: Q01DX009 (ip), vehicle: saline + alcohol); 124 % of control (dose: 5.0 mg/kg/injection, schedule: Q04DX003 (ip), vehicle: other); 212 % of control (dose: 7.5 mg/kg/injection, schedule: Q04DX003 (ip), vehicle: other); 184 % of control (dose: 8.0 mg/kg/injection, schedule: Q01DX009 (ip), vehicle: distilled water + Tween-80 + alcohol); 200 % of control (dose: 8.0 mg/kg/injection, schedule: Q01DX009 (ip), vehicle: other); 72 % of control (dose: 8.0 mg/kg/injection, schedule: Q01DX009 (ip), vehicle: saline + alcohol). The T/C (dose: 9.0 mg/kg/injection, schedule: Q04DX002 (ip), vehicle: Klucel (hydroxypropylcellulose) (HPC)) is 121 % of control; the T/C (dose: 10.0 mg/kg/injection, schedule: Q04DX003 (ip), vehicle: other) was 189 % of control; the T/C (dose: 15.0 mg/kg/injection, schedule: Q04DX002 (ip), vehicle: Klucel (hydroxypropylcellulose) (HPC)) was 150 % of control; the T/C (dose: 15.0 mg/kg/injection, schedule: Q04DX003 (ip), vehicle: other) was 94 % of control and 272 % of control; the T/C (dose: 16.0 mg/kg/injection, schedule: Q01DX009 (ip), vehicle: distilled water + Tween-80 + alcohol) is 51 % of control; the T/C (dose: 16.0 mg/kg/injection, schedule: Q01DX009 (ip), vehicle: other) is 50 % of control. Also, the T/C is 45 % of control (dose: 16.0 mg/kg/injection, schedule: Q01DX009 (ip), vehicle: saline + alcohol); 263 % of control (dose: 20.0 mg/kg/injection, schedule: Q04DX003 (ip), vehicle: other); 161 % of control (dose: 24.0 mg/kg/injection, schedule: Q01DX001 (ip), vehicle: distilled water + Tween-80 + alcohol); 196 % of control (dose: 25.0 mg/kg/injection, schedule: Q04DX002 (ip), vehicle: Klucel (hydroxypropylcellulose) (HPC)); 50 % of control and 55 % of control (dose: 30.0 mg/kg/injection, schedule: Q04DX003 (ip), vehicle: other); 37 % of control (dose: 32.0 mg/kg/injection, schedule: Q01DX009 (ip), vehicle: other). The T/C reads like this: (dose: 32.0 mg/kg/injection, schedule: Q01DX009 (ip), vehicle: saline + alcohol) 31 % of control; (dose: 40.0 mg/kg/injection, schedule: Q01DX001 (ip), vehicle: distilled water + Tween-80 + alcohol) 182 % of control; (dose: 42.0 mg/kg/injection, schedule: Q04DX002 (ip), vehicle: Klucel (hydroxypropylcellulose) (HPC)) 213 % of control; (dose: 64.0 mg/kg/injection, schedule: Q01DX009 (ip), vehicle: other) 27 % of control; (dose: 64.0 mg/kg/injection, schedule: Q01DX009 (ip), vehicle: saline + alcohol) 26 % of control; (dose: 66.7 mg/kg/injection, schedule: Q01DX001 (ip), vehicle: distilled water + Tween-80 + alcohol) 63 % of control.
For `Nc1n[n+](-c2ccccc2)no1`, the T/C by setting is: (dose: 1.56 mg/kg/injection, schedule: Q01DX009 (ip), vehicle: water) 102 % of control; (dose: 3.12 mg/kg/injection, schedule: Q01DX009 (ip), vehicle: water) 89 % of control; (dose: 3.13 mg/kg/injection, schedule: Q01DX009 (ip), vehicle: water) 96 % of control; (dose: 6.25 mg/kg/injection, schedule: Q01DX009 (ip), vehicle: water) 102 % of control and 105 % of control; (dose: 12.5 mg/kg/injection, schedule: Q01DX009 (ip), vehicle: water) 119 % of control.
For the compound `COc1cccc2c1C(=O)c1c(O)c3c(c(O)c1C2=O)CC(O)(/C(C)=N/NC(=O)CCCCC(=O)N/N=C(\C)C1(O)Cc2c(O)c4c(c(O)c2C(OC2CC(N)C(O)C(C)O2)C1)C(=O)c1c(OC)cccc1C4=O)CC3OC1CC(N)C(O)C(C)O1` (stereo not given), the T/C is 114 % of control (dose: 0.38 mg/kg/injection, schedule: Q01DX009 (ip), vehicle: water); 177 % of control (dose: 1.5 mg/kg/injection, schedule: Q01DX009 (ip), vehicle: water); 295 % of control (dose: 3.0 mg/kg/injection, schedule: Q01DX009 (ip), vehicle: water); 208 % of control (dose: 6.0 mg/kg/injection, schedule: Q01DX009 (ip), vehicle: water).
For the compound `O=C(Nc1cccc(C(F)(F)F)c1)c1cccc(C(=O)Nc2cccc(C(F)(F)F)c2)c1`, the T/C runs as follows: (dose: 12.5 mg/kg/injection, schedule: Q01DX009 (ip), vehicle: Klucel (hydroxypropylcellulose) (HPC)) 101 % of control; under setting [1], 106 % of control; under setting [2], 108 % of control.
Regarding `CC(C)CNc1ccc(S(=O)(=O)c2ccc(NCC(C)C)c([N+](=O)[O-])c2)cc1[N+](=O)[O-]`, the T/C is 100 % of control (dose: 3.13 mg/kg/injection, schedule: Q01DX009 (ip), vehicle: saline with Tween-80); 93 % of control (dose: 6.25 mg/kg/injection, schedule: Q01DX009 (ip), vehicle: saline with Tween-80); 93 % of control under setting [3]; 89 % of control (dose: 12.5 mg/kg/injection, schedule: Q01DX009 (ip), vehicle: saline with Tween-80); 88 % of control (dose: 25.0 mg/kg/injection, schedule: Q01DX009 (ip), vehicle: saline).
`CCCCNC1=C(N2CC2)C(=O)C(NCCCC)=C(N2CC2)C1=O`: the T/C under setting [4] was 113 % of control and the T/C under setting [5] was 112 % of control.
For `C=CCN(C(=O)OCC)c1ccccc1`, the T/C was 100 % of control under setting [6] and 97 % of control (dose: 200.0 mg/kg/injection, schedule: Q01DX009 (ip), vehicle: Klucel (hydroxypropylcellulose) (HPC)).
As to `CC(=O)CC(C)=O.CC(=O)CC(C)=O.CC(=O)CC(C)=O.[V]`, the T/C is 88 % of control (dose: 3.13 mg/kg/injection, schedule: Q01DX009 (ip), vehicle: saline) and 89 % of control under setting [3].
Turning to `Cc1ccc([N+](=O)[O-])c2ccccc12`, the T/C runs as follows: (dose: 100.0 mg/kg/injection, schedule: Q01DX009 (ip), vehicle: saline with Tween-80) 97 % of control; (dose: 200.0 mg/kg/injection, schedule: Q01DX009 (ip), vehicle: saline with Tween-80) 88 % of control.
On to `CN1CCN=C1c1ccc(NC(=O)c2ccc(C(=O)Nc3ccc(C4=NCCN4C)cc3)c(N)c2)cc1`, for which the T/C is, setting by setting: under setting [4], 115 % of control; (dose: 1.25 mg/kg/injection, schedule: Q04DX003 (ip), vehicle: saline) 89 % of control; under setting [5], 117 % of control; (dose: 2.5 mg/kg/injection, schedule: Q04DX003 (ip), vehicle: saline) 94 % of control; (dose: 5.0 mg/kg/injection, schedule: Q01DX009 (ip), vehicle: saline) 115 % of control; (dose: 5.0 mg/kg/injection, schedule: Q04DX003 (ip), vehicle: saline) 100 % of control.
For the compound `Cc1ccc(NC(=O)Nc2cccc(Cl)c2C)cc1C`, the T/C runs as follows: under setting [1], 98 % of control; under setting [2], 86 % of control; under setting [6], 92 % of control.
